From patent US20140113904A1, “TREATMENT OF CANCER WITH TOR KINASE INHIBITORS” (SIGNAL PHARMACEUTICALS, LLC, priority 2012, published 2014)
Like-named read-outs stand apart in the source and are kept apart here.

How the values were obtained:
[1] = Mouse plasma protein binding; type: in vitro ADME; conditions: Compound 1
pS6 = pS6 in PC3 tumors, MSD (Compound 1); type: in vivo, SCID mice; conditions: for pS6 inhibition in tumor: through 24 hours
Description: The plasma and tumor samples were collected at various time points following compound administration as described.
Mice were monitored daily for clinical signs and body weight changes. At the end of the study, mice were euthanized and plasma and tumor samples were collected for PK/PD determination. PD markers, pS6 and pAkt, were measured using MSD technology.
After the last measurement, the experiment was terminated by taking the plasma and tumor samples for PK and PD measurements. Compound concentrations in plasma and tumor were determined by LC-MS/MS. PD markers, pS6 and pAkt, were measured using MSD technology.
At predetermined time points following dosing, mice were euthanized and plasma and tumor samples were collected for PK/PD determination. Compound concentrations in plasma and tumor were determined by LC-MS/MS. PD markers, pS6 and pAkt, were measured using Mesoscale technology.
For Mesoscale discovery assays, tissue samples were homogenized in lysis buffer containing protease and phosphatase inhibitors and centrifuged for 10 minutes at 1200 rpm at 4° C. Supernatants were sonicated for 1 minute at 4° C., aliquoted and stored at −80° C. Protein concentrations in samples were determined using BCA Protein Assay Reagent Kit (Thermo Scientific). Meso Scale Discovery kits and protocol for measuring the pS6 and pAkt/Total Akt kits were used. MSD 96-well plates spotted with pS6, pAkt/total Akt were blocked with blocking solution for 5 minutes followed by a wash with wash buffer. […] of tumor lysates were added to each well and incubated for 2 hours followed by a 4× wash with a wash buffer. Detection antibody was added to each well and incubated in the dark for 1 hour at 4° C. The plates were then washed and bound antigen was read using an MSD SECTOR™ instrument.

GSK3β (S9) = assay: Phospho-GSK3Beta (S9) in PC-3 cell lysates, MSD (Compound 2); type: cell-based; conditions: Homo sapiens; PC-3, 1 hour; read-out: mTORC2 GSK3β (S9) IC50
Description: The direct substrate for mTORC1 was 4E-BP1(T46) and the indirect downstream substrate was S6RP (S235/S236). The direct substrate for mTORC2 was AKT (S473) and the indirect downstream substrates measured were GSK3β(S9) and PRAS40 (T246). Additionally, the phosphorylation status of AKT (T308), a phosphorylation site for PDK1, was monitored. Concentration-response curves were plotted and IC50 values determined. Cells were plated in 96-well flat bottom plates at the required density (PC-3 cells/well) and the cells were allowed to equilibrate at 37° C., 5% CO2 overnight. […] After the incubation period, the culture media was removed carefully with an aspirator. The plate was placed on ice and 50 μL of 1× Tris Lysis Buffer was added to each well. The plate was placed on a shaker at 4° C. for 1 hour to lyse the cells. At that point, the plate was either frozen at -80° C. for later analysis or immediately assayed for phosphoproteins as described below. To monitor interassay variability, a reference standard was included in the assay for PC-3 cells and the coefficient of variation for assay of […]) was 9.3% (n=50) and for assay of p-AKT (S473) was 28.6% (n=50). The assay plate was incubated with 150 μL of MSD Blocking Buffer for 1 hour with shaking at room temperature. […] Then 150 μL of 1×MSD Read Buffer T was added to each well. The plate was read on the SECTOR Imager plate reader.

pAKT (S473) = pAKT (S473) in PC3 tumors, MSD (Compound 2); type: in vivo, SCID mice; conditions: Mus musculus; for inhibition at 0.1 mg/kg: 0.1 mg/kg single oral dose; for inhibition at 0.3 mg/kg: 0.3 mg/kg single oral dose; for inhibition at 10 mg/kg: 10 mg/kg single oral dose
[2] = 0.5 h, read-out: PD Marker Inhibition (%) pAKT (S473)
[3] = 1 h, read-out: PD Marker Inhibition (%) pAKT (S473)
[4] = 3 h, read-out: PD Marker Inhibition (%) pAKT (S473)
[5] = 6 h, read-out: PD Marker Inhibition (%) pAKT (S473)
[6] = 10 h, read-out: PD Marker Inhibition (%) pAKT (S473)
[7] = 24 h, read-out: PD Marker Inhibition (%) pAKT (S473)

In the case of `CO[C@H]1CC[C@H](N2C(=O)CNc3ncc(-c4ccc(C(C)(C)O)nc4)nc32)CC1` [Compound 1, 7-(6-(2-hydroxypropan-2-yl)pyridin-3-yl)-1-((1r,4r)-4-methoxycyclohexyl)-3,4-dihydropyrazino-[2,3-b]pyrazin-2(1H)-one], the “mouse plasma protein binding” value [1] is reported as 88%, the “inhibition of pS6” value (pS6; 0.3 mg/kg single dose, 0.5 h, data not shown) is reported as 81% and the pS6 inhibition (pS6; 0.3 mg/kg single dose, up to 2 hours, data not shown) is reported as “Approximately 80%”. The pS6 inhibition (pS6; 1 mg/kg single dose, up to 4 hours) was “Approximately 80%”, the “PD Marker Inhibition (%) pS6” value (pS6; 1 mg/kg single oral dose, 0.5 h) was 80.8% and the “PD Marker Inhibition (%) pS6” value (pS6; 1 mg/kg single oral dose, 2 h) was 82.8%. For the same compound, the “PD Marker Inhibition (%) pS6” value (pS6; 1 mg/kg single oral dose, 4 h) was 78.6%, the “PD Marker Inhibition (%) pS6” value (pS6; 1 mg/kg single oral dose, 6 h) was 53.1% and the “PD Marker Inhibition (%) pS6” value (pS6; 1 mg/kg single oral dose, 10 h) was 14.4%. For the same compound, the “PD Marker Inhibition (%) pS6” value (pS6; 1 mg/kg single oral dose, 24 h) was 20.6%, the “inhibition of pS6 in tumors” value (pS6; 10 mg/kg QD 5 days, 24 hours after the last dose) was 22% and the “inhibition of pS6” value (pS6; 10 mg/kg single dose, up to 8 hours) was over 80%. For the same compound, the “PD Marker Inhibition (%) pS6” value (pS6; 10 mg/kg single oral dose, 1 h) was 79.5%, the “PD Marker Inhibition (%) pS6” value (pS6; 10 mg/kg single oral dose, 3 h) was 91.9% and the “PD Marker Inhibition (%) pS6” value (pS6; 10 mg/kg single oral dose, 8 h) was 91.2%. The “PD Marker Inhibition (%) pS6” value (pS6; 10 mg/kg single oral dose, 16 h) was 32.4%, the “PD Marker Inhibition (%) pS6” value (pS6; 10 mg/kg single oral dose, 24 h) was 32.7% and the “PD Marker Inhibition (%) pS6” value (pS6; 10 mg/kg single oral dose, 48 h) was 39.5%. The “PD Marker Inhibition (%) pS6” value (pS6; 10 mg/kg single oral dose, 72 h) was 47.9%, the “inhibition of pS6 levels” value (pS6; 25 mg/kg single dose, up to 24 hours) was over 80% and the “PD Marker Inhibition (%) pS6” value (pS6; 25 mg/kg single oral dose, 1 h) was 87.9%. The “PD Marker Inhibition (%) pS6” value (pS6; 25 mg/kg single oral dose, 3 h) was 95.1%, the “PD Marker Inhibition (%) pS6” value (pS6; 25 mg/kg single oral dose, 8 h) was 92.3% and the “PD Marker Inhibition (%) pS6” value (pS6; 25 mg/kg single oral dose, 16 h) was 92.1%. The “PD Marker Inhibition (%) pS6” value (pS6; 25 mg/kg single oral dose, 24 h) was 83.7%, the “PD Marker Inhibition (%) pS6” value (pS6; 25 mg/kg single oral dose, 48 h) was 47.2% and the “PD Marker Inhibition (%) pS6” value (pS6; 25 mg/kg single oral dose, 72 h) was 68.3%. For the same compound, the “pS6 inhibition in tumor” value (pS6; 30 mg/kg single oral dose) was 78%, the “pS6 inhibition in tumor” value (pS6; 100 mg/kg single oral dose) was 91% and the “both PD markers (pS6, pAKT) in tumors” value (pS6; 25 and 50 mg/kg QD, 24 hr timepoint, data not shown) was “significantly inhibited”.
With `CCN1C(=O)CNc2ncc(-c3ccc(-c4nc[nH]n4)nc3C)nc21` [Compound 2, 1-ethyl-7-(2-methyl-6-(1H-1,2,4-triazol-3-yl)pyridin-3-yl)-3,4-dihydropyrazino[2,3-b]pyrazin-2(1H)-one] the IC50 (GSK3β (S9)) was 0.017 µM, the inhibition at 0.1 mg/kg (pAKT (S473); [2]) was 50% and the inhibition at 0.1 mg/kg (pAKT (S473); [3]) was 25.1%. It also gave an inhibition at 0.1 mg/kg (pAKT (S473); [4]) of 15.3%, an inhibition at 0.1 mg/kg (pAKT (S473); [5]) of 14.2% and an inhibition at 0.1 mg/kg (pAKT (S473); [6]) of 2.5%. The inhibition at 0.1 mg/kg (pAKT (S473); [7]) was 0%, the inhibition at 0.3 mg/kg (pAKT (S473); [2]) was 77.2% and the inhibition at 0.3 mg/kg (pAKT (S473); [3]) was 70.7%. The inhibition at 0.3 mg/kg (pAKT (S473); [4]) was 52.9%, the inhibition at 0.3 mg/kg (pAKT (S473); [5]) was 42.2% and the inhibition at 0.3 mg/kg (pAKT (S473); [6]) was 23%. The inhibition at 0.3 mg/kg (pAKT (S473); [7]) was 9.6%, the inhibition at 1 mg/kg (pAKT (S473); 1 mg/kg single dose, through 10 hours, read-out: inhibition of pAKT (S473) in tumor) was about 65% and the inhibition at 1 mg/kg (pAKT (S473); 1 mg/kg single oral dose, 1 h, read-out: PD Marker Inhibition (%) pAKT (S473)) was 79.6%. The inhibition at 1 mg/kg (pAKT (S473); 1 mg/kg single oral dose, 3 h, read-out: PD Marker Inhibition (%) pAKT (S473)) was 65.1%, the inhibition at 1 mg/kg (pAKT (S473); 1 mg/kg single oral dose, 6 h, read-out: PD Marker Inhibition (%) pAKT (S473)) was 69.9% and the inhibition at 1 mg/kg (pAKT (S473); 1 mg/kg single oral dose, 10 h, read-out: PD Marker Inhibition (%) pAKT (S473)) was 65.5%. It also gave an inhibition at 1 mg/kg (pAKT (S473); 1 mg/kg single oral dose, 24 h, read-out: PD Marker Inhibition (%) pAKT (S473)) of 19%, an inhibition at 10 mg/kg (pAKT (S473); [3]) of 87.6% and an inhibition at 10 mg/kg (pAKT (S473); [4]) of 88.3%. The inhibition at 10 mg/kg (pAKT (S473); [5]) was 86.9%, the inhibition at 10 mg/kg (pAKT (S473); [6]) was 86% and the inhibition at 10 mg/kg (pAKT (S473); [7]) was 79.8%.
